From patent US7799830B2, “Cinnamic acid dimers, their preparation and the use thereof for treating neurodegenerative disease” (Korea Institute of Science and Technology, priority 2002, dated 2010)

Tests used:
[1] = test system: mice administered with beta-amyloid; assay: passive avoidance test (learning and memory-retention ability of mice); assay type: in vivo; conditions: mice given compound and beta-amyloid (1-42); 24 h after training; maximum 300 seconds; average of 10 mice; FIG. 1
Procedure: Four groups of 10 mice aged 4-5 weeks, weighing 20-25 g were used in the experiment. Each sample was administered with 1% DMSO and 1% CMC using a Sonde once a day (samples: A—physiological salin solution; B—beta-amyloid; C—cinnamic acid dimer (example 1) and beta-amyloid). After injecting […] of each sample to the cerebral ventricle 3 consecutive days, passive avoidance test was conducted on the first and second day for following the last injection. All data was attained by the average of 10 mice.
In order to examine the learning and memory-retention ability of a mouse, a passive avoidance test was carried out in accordance with the method described in Song et al, J. Neurochem., 1998, 71, 875. A passive avoidance chamber equipped with a light room and a dark room was prepared, wherein the floor of the dark room was designed to deliver an electrical shock to the test animal. First, a mouse was put in the light room and, upon entering the dark room, an electrical shock of 0.25 mA was given to the animal for 1 second. […] Then, the time it took for the mouse to enter the dark room was measured as a passive avoidance time. The maximum restriction time was set at 300 seconds, i.e., in cases where the mouse took more than 300 seconds to enter the dark room, the passive avoidance time was determined to be 300 seconds.

Spraque-Dawley rats = assay: oral toxicity test of cinnamic acid dimers; assay type: in vivo
Procedure: Twenty female and twenty male Spraque-Dawley rats aged 4 weeks were divided into four groups including 5 female and 5 male rats, after being raised in a vivarium of a temperature of 22±3° C., a relative humidity of 50±10%, an illumination of 150-300 Lux for 1 week.
The cinnamic acid dimers prepared in Example 1 were dissolved in corn oil, and the rats of the 4 groups were orally administered with the solution at a dose of 300, 1,000, 3,000 and 10,000 mg/kg once. […] In addition, the rats were killed on the seventh day after administration, dissected, and internal organs were examined with the unaided eye. Daily weight change was measured from the administration day and thus the weight decrease of animals attributed to cinnamic acid dimers was observed.

SMILES: COc1cc(C=CC(=O)O)ccc1OCCOc1ccc(C=CC(=O)O)cc1OC [Example 1, 1,2-di[2-methoxy-4-(2-carboxylvinyl)]phenoxyethane]
- step-through latency (passive avoidance time) compared with mice administered with beta-amyloid only [1]: significantly higher
- pathological changes of internal organs at dissection (Spraque-Dawley rats; group administered with 5,000 mg/kg or less, seventh day after administration, unaided eye): No pathological changes were seen with the naked eye
- LD50 (Spraque-Dawley rats; single oral dose in corn oil, observed for 7 days, both males and females): 5,000 mg/kg
